Data: patent US12551479B2, “Acyl-protein thioesterase inhibitor for the treatment and/or prevention of Huntington's disease” (UNIVERSITÉ GRENOBLE ALPES, priority 2019, dated 2026)

Assays:
[1] = tested on: StHdh^Q111/Q111 cells; test: RUSH system: GPI-SBP-mCherry trafficking from endoplasmic reticulum to Golgi and plasma membrane; format: cell-based, mouse; details: StHdh^Q111/Q111 cells treated 1 hour with 10 μM
Method: The RUSH plasmid (Boncompain et al., 2012) is a bicistronic plasmid (SEQ ID NO: 2) allowing the expression of two parts of the system: the reticulum-specific anchor (KDEL-streptavidin), and the reporter part (GPI-SBP-mCh). The addition of biotin in the extracellular medium (40 μM) induces the unhooking of the reporter part of the anchor, thus allowing to follow the intracellular trafficking in a synchronized way within a cell population from the endoplasmic reticulum.
(§1) For striatal StHdh cells, acute treatment was performed at 10 μM for 1 hour before and during the acquisition time. For neurons within the microchambers, treatments were started at DIV2 until DIV12 every day at 1 μM in each compartment of the microfluidic device.
The inventors used the Retention Using Selective Hooks (RUSH) system to study intracellular dynamics from the ER to the plasma membrane in Huntington's disease condition (FIG. 1A). RUSH allows tracking the synchronous release of a reporter molecule from specific intracellular compartments. In the present experiment, the inventors followed the release of glycosylphosphatidylinositol (GPI)-anchored fluorescence protein mCherry, and fused to streptavidin-binding peptide (SBP) that was retained into the ER compartment by the interaction with a “hook” protein composed of the KDEL motif fused to streptavidin. In the absence of biotin, the GPI-SBP-mCherry localizes at the ER (FIG. 1A). Addition of biotin to the cells expressing GPI-SBP-mCherry and KDEL-streptavidin causes a synchronous release of the GPI-SBP-mCherry reporter from the hook which then migrates to the Golgi apparatus and later to the plasma membrane.
To study these dynamics in the context of Huntington's disease, the inventors transfected the GPI-SBP-mCherry-KDEL-streptavidin construct as shown in SEQ ID NO:2 into immortalized striatal cells from Hdh^Q111/Q111 and Hdh^Q7/Q7 mice, referred to as StHdh^Q111/Q111 and StHdh^Q7/Q7 cells respectively. They then monitored GPI-SBP-mCherry trafficking by real-time imaging for 90 minutes. To assess intracellular trafficking dynamics, they quantified the kinetics of appearance and disappearance of mCherry fluorescence in the Golgi apparatus over time (FIGS. 1B and C). Shortly after biotin addition, GPI leaves the ER and moves to the Golgi apparatus. The inventors quantified fluorescence at the Golgi and observed that in StHdh^Q7/Q7 cells, the peak fluorescence was at 16.6 minutes, whereas it was delayed to 23.6 minutes in StHdh^Q111/Q111 cells (FIG. 1B). Their observations indicate a reduced trafficking of GPI from the ER to the Golgi apparatus as well as prolonged retention of GPI in the Golgi as evidenced by a longer period of GPI fluorescence in the Golgi apparatus.

[2] = tested on: WT and Hdh^CAG/+ corticostriatal network; test: Synapse density (adjacent SYP and PSD95 spots) in microfluidic corticostriatal network; format: cell-based, mouse; details: 1 μM daily
Method: In FIG. 3H, we can see the recording area that was chosen for the assessment of synapse density by quantifying the number of synaptophysin (SYP) spots, a presynaptic marker, and the number of PSD95 spots, a postsynaptic marker. FIG. 3I testifies that in the Hdh^CAG/+ microfluidic network, the number of synapses is decreased in the microfluidic devices.
as §1
The inventors then assessed synapse density by quantifying the number of synaptophysin spots (presynaptic marker, SYP) adjacent to PSD95 spots (postsynaptic marker) within synaptic chamber of the microfluidic device using high-resolution Airyscan confocal microscopy (FIG. 3H). In Hdh^CAG/+ network, the number of synapses is decreased in the microfluidic devices (FIG. 3I). […] However, this was not significant.

[3] = tested on: Hdh^CAG140/+ mice; test: Open Field test; format: in vivo, mouse; details: 0.3 mg/kg/day subcutaneous infusion
Method: (§2) Mice littermates were grouped into mixed treatment groups. Males and females were 6 months of age at the beginning of the treatment. For each specific test, all experimental groups were tested on the same day, during the light phase and between Days 16 and 28 of treatment. Prior to testing, mice were acclimatized to the test room for a period of 30 minutes. Treatments were randomly assigned and behavioral tests were performed 12 days before the end of the delivery of the treatment. […] Mice were excluded from analysis if their performance was calculated as a significant outlier by the Grubb test. One mouse was excluded based on these criteria. Mouse weights were measured prior to the start of treatment and until the end of testing.
Spontaneous locomotion was measured as the total distance traveled and general anxiety as the number of entries into the internal area. The Open Field test was conducted in a opaque Plexiglas square chamber (50×50 cm) and the internal chamber was defined with a quadrangular shape of 12.50×12.50 cm. The mice were filmed for 60 minutes. The distance traveled and the number of entries into the internal chamber per 5-minute interval were measured using ViewPoint tracking software.

[4] = tested on: Hdh^CAG140/+ mice; test: Novelty-Suppressed Feeding test; format: in vivo, mouse; details: Hdh^CAG/+ mice, 0.3 mg/kg/day subcutaneous infusion
Method: as §2
The test was performed as in Pla et al., 2013. Animals were food-deprived during 24 hours to increase motivation to consume food. On the day of testing, mice were placed within the testing apparatus, which consisted of a plastic box (50 cm×30 cm×15 cm), the floor of which covered with wooden bedding. Mice were videorecorded and allowed to freely explore the area until they eat the food pellet or for a maximum of 10 minutes. The mice were considered to eat the pellet when they bite the pellet while sitting comfortably.

O=C(CN1CCN(C(=O)c2ccco2)CC1)Nc1cc(C(F)(F)F)ccc1Cl [ML-348]
time after biotin addition for the appearance of the fluorescence peak in the Golgi ([1]; without treatment 23.2-23.3 min, StHdh^Q7/Q7 16.6 min): 18.9 min | time for fluorescence to leave the Golgi apparatus (retention time in the Golgi) ([1]; without treatment 24-25.4 min, wild-type cells 15.1 min): 15.1 min | number of synapses (adjacent SYP and PSD95 spots) ([2]; Hdh^CAG/+ network): restored the number of synapses | number of synapses (adjacent SYP and PSD95 spots) ([2]; wild-type network, not statistically significant): slightly reduced synapse connectivity | total distance traveled over 60 minutes (spontaneous locomotion) [3]: no effect | number of entries into the central area over 60 minutes ([3]; wild-type and Hdh^CAG/+ mice): no significant effect | latency to feeding in a new environment [4]: restores the behavior of Hdh^CAG/+ mice to that of wild-type mice
